Values after ≈ are worked out from the molar mass of the structure shown.
How the values were obtained:
HepG2 [1] = assay: Cytotoxicity against human HepG2 cells assessed as cell growth inhibition after 48 hrs by SRB assay; type: functional, cell-based; settings: HepG2, 48 h
P815 = assay: Cytotoxicity against mouse P815 cells assessed as cell growth inhibition measured after 48 hrs by MTT assay; type: functional, cell-based; settings: P815, 48 h
MCF7 [2] = assay: Cytotoxicity against human MCF7 cells assessed as cell growth inhibition measured after 48 hrs by MTT assay; type: functional, cell-based; settings: MCF7, 48 h
[3] = biological target: T1, Vascular endothelial growth factor receptor 2 (Homo sapiens, UniProt P35968); assay: Binding affinity to VEGFR2 (unknown origin) at 10 uM using ULight-4E-BP1 peptide as substrate incubated for 1 hr in presence of ATP by fluorescence based analysis relative to control
T1 sequence (P35968 whole entry): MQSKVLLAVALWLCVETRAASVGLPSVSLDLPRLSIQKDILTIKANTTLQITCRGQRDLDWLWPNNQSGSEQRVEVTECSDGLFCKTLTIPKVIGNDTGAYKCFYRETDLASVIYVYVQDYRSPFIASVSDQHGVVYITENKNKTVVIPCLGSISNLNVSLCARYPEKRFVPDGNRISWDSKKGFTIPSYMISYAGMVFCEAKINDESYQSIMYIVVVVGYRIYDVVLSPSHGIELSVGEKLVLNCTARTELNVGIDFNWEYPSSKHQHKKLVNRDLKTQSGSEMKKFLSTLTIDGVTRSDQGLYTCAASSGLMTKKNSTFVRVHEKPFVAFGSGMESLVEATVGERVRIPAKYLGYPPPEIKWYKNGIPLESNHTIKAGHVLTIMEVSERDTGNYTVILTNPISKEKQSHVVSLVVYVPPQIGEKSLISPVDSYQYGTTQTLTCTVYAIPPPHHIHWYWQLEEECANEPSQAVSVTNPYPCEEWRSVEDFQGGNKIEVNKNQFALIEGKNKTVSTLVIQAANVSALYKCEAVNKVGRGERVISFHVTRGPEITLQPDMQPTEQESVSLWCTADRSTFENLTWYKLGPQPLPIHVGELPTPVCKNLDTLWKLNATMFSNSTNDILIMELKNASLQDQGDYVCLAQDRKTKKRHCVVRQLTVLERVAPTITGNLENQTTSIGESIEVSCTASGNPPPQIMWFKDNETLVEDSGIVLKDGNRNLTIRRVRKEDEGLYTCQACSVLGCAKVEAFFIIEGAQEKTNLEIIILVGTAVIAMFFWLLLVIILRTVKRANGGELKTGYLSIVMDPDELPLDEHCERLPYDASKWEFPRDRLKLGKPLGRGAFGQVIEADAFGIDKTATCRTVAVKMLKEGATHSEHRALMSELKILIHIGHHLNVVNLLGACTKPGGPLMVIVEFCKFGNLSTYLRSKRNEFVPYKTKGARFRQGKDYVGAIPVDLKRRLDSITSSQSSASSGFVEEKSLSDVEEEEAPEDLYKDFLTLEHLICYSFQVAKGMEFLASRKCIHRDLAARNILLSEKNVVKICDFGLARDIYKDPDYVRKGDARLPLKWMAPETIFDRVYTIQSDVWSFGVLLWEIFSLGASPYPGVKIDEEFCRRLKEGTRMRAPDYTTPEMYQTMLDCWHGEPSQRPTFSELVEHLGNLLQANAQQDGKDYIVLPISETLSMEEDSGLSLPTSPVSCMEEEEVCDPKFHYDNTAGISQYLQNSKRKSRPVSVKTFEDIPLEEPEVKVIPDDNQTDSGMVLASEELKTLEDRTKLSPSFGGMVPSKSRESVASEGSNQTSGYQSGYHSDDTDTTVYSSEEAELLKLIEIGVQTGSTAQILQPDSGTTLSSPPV

ECa-109 cell line = assay: Antiproliferative activity against human EC109 cells assessed as inhibition of cell growth; type: functional, cell-based
MDA-MB-231 = assay: Antiproliferative activity against human MDA-MB-231 cells assessed as cell growth inhibition measured after 48 hrs by WST-1 assay; type: functional, cell-based; settings: MDA-MB-231, 48 h
HCT-116 [4] = assay: Cytotoxicity against human HCT-116 cells assessed as cell growth inhibition by colorimetric method; type: functional, cell-based
[5] = biological target: Vascular endothelial growth factor receptor 3 (Homo sapiens) (UniProt P35916); assay: Inhibition of VEGFR3 (unknown origin) at 10 uM by ELISA relative to control
Vascular endothelial growth factor receptor 3 (Homo sapiens), sequence (P35916 whole entry): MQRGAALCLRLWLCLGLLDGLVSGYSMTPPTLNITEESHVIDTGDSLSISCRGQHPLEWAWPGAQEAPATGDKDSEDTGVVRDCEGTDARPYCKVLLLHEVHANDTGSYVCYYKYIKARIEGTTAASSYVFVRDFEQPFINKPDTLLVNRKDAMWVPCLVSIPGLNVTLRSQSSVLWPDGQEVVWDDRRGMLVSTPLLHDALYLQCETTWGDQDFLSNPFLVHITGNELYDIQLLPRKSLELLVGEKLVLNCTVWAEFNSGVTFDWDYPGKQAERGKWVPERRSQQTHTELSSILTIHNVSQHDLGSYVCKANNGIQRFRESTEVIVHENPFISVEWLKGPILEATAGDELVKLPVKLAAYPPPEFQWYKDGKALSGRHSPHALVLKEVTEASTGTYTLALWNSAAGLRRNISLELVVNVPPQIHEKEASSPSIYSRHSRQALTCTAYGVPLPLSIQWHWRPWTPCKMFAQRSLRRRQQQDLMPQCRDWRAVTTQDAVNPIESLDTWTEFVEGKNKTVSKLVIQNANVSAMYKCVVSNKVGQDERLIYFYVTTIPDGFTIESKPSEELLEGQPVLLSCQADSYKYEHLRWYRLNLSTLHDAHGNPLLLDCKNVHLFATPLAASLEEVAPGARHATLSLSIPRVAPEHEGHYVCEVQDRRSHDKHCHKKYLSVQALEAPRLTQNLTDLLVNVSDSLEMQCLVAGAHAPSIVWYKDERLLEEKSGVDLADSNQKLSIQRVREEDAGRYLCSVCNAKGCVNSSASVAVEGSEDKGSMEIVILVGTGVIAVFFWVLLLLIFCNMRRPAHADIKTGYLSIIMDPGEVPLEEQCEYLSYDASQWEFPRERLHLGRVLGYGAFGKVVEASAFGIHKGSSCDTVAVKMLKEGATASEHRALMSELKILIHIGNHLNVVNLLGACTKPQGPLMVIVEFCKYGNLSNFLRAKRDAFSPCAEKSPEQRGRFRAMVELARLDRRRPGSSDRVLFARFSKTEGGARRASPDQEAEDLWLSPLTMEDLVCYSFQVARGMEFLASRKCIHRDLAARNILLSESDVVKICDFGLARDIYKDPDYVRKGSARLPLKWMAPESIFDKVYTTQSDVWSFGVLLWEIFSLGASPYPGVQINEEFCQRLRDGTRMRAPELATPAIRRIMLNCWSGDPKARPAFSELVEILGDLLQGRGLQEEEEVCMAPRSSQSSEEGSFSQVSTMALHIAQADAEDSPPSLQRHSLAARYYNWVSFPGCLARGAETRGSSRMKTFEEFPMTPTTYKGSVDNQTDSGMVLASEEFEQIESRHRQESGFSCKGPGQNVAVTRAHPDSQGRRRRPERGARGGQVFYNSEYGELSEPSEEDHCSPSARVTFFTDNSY

HCT-116 [6] = assay: Cytotoxicity against human HCT-116 cells assessed as cell growth inhibition measured after 48 hrs by SRB assay; type: functional, cell-based; settings: HCT-116, 48 h
[7] = In vivo inhibition of VEGFR2 in Swiss albino mouse implanted with mouse Ehrlich cells incubated for 24 hrs by immunohistochemical staining based analysis relative to control; type: functional
[8] = Inhibition of tyrosine kinase (unknown origin); design: species or system Homo sapiens
MCF7 [9] = assay: Antiproliferative activity against human MCF7 cells assessed as cell growth inhibition; type: functional, cell-based
A549 [10] = assay: Cytotoxicity against human A549 cells assessed as cell growth inhibition measured after 72 hrs by MTT assay; type: functional, cell-based; settings: A549, 72 h
MCF7 [11] = assay: Cytotoxicity against human MCF7 cells assessed as cell growth inhibition measured after 72 hrs by MTT assay; type: functional, cell-based; settings: MCF7, 72 h
HepG2 [12] = assay: Cytotoxicity against human HepG2 cells assessed as cell growth inhibition measured after 72 hrs by MTT assay; type: functional, cell-based; settings: HepG2, 72 h
Homo sapiens = organism: Homo sapiens; assay: Inhibition of WNT (unknown origin) at 10 uM measured after 24 hrs by TOPFlash reporter gene assay
[13] = biological target: Hepatocyte growth factor receptor (Homo sapiens, UniProt P08581); assay: Inhibition of MET (unknown origin) at 10 uM incubated for 60 mins by spectrophotometric analysis relative to control
Hepatocyte growth factor receptor, sequence (P08581 whole entry): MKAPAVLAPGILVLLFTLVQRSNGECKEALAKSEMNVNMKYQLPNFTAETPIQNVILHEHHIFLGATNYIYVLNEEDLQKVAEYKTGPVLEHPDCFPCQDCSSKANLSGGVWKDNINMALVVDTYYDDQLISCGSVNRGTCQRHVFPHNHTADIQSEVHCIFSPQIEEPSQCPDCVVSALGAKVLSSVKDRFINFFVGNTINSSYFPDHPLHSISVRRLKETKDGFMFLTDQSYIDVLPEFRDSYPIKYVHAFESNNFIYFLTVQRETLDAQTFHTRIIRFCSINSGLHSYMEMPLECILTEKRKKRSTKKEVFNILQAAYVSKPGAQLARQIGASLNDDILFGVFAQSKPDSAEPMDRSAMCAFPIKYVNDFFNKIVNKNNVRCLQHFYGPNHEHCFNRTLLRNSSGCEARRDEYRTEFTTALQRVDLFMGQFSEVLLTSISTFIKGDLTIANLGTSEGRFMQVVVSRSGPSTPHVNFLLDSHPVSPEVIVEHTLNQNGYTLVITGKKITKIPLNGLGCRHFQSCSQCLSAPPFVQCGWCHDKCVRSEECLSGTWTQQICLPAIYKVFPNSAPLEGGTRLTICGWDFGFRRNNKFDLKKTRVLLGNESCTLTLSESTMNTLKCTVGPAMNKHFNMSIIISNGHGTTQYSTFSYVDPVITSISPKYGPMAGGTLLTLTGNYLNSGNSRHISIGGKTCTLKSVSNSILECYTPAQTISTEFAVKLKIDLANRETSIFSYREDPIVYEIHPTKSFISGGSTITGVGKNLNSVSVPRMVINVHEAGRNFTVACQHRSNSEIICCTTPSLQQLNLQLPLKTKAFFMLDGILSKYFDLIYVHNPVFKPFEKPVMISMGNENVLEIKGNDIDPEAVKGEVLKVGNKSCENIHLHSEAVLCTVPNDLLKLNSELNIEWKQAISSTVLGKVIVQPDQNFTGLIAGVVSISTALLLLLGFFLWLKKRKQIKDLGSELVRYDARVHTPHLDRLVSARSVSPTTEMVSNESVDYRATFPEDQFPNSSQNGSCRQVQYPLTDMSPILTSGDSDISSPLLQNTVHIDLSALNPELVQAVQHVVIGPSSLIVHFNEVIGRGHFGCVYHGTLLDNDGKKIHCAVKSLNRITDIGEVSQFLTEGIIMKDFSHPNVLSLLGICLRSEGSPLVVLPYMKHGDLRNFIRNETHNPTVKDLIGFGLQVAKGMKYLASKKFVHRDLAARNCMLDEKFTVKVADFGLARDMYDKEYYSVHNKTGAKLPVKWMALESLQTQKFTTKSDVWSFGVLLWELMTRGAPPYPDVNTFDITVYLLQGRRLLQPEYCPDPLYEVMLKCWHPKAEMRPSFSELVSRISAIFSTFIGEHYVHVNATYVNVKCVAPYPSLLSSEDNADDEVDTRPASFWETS

HT-29 = assay: Antiproliferative activity against human HT-29 cells assessed as cell growth inhibition by propidium iodide staining based fluorescence assay; type: functional
MIA PaCa-2 = assay: Antiproliferative activity against human MIA PaCa-2 cells assessed as cell growth inhibition by propidium iodide staining based fluorescence assay; type: functional
HepG2 [14] = assay: Cytotoxicity against human HepG2 cells assessed as cell growth inhibition by colorimetric method; type: functional, cell-based
[15] = biological target: Poly [ADP-ribose] polymerase 1 (Homo sapiens, UniProt P09874); assay: Displacement of [125I]KX1 from PARP1 in human OVCAR-8 cells incubated for 1 hr by wizard gamma counter analysis; type: cell-based
Poly [ADP-ribose] polymerase 1, sequence (P09874 whole entry): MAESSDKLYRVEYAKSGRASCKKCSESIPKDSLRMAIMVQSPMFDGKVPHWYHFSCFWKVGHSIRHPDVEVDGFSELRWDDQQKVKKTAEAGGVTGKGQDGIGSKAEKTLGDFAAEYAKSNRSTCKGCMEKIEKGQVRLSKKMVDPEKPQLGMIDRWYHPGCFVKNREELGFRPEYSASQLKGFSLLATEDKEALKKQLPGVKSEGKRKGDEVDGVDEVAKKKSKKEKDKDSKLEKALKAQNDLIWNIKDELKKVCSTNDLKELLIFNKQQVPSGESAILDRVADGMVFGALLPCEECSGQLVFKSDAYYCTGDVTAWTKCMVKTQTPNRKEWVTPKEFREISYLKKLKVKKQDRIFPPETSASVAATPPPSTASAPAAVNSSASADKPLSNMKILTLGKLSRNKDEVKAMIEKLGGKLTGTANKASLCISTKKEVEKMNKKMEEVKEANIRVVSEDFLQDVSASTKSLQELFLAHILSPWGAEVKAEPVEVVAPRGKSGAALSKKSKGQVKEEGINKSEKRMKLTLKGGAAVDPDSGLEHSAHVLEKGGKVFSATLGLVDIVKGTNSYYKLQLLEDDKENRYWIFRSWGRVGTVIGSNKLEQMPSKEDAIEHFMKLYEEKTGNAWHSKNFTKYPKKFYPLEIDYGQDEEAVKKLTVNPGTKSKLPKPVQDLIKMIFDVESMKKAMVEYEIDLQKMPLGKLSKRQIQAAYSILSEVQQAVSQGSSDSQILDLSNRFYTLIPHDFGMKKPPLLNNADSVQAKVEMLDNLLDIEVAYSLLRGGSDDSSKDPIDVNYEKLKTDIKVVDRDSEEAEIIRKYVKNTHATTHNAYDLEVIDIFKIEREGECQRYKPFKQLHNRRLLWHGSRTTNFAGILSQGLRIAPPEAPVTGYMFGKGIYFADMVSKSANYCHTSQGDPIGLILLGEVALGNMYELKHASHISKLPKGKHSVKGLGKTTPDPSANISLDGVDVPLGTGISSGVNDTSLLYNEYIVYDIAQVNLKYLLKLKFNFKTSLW

MCF7 [16] = assay: Cytotoxicity against human MCF7 cells assessed as cell growth inhibition by colorimetric method; type: functional, cell-based
MCF7 [17] = assay: Antiproliferative activity against human MCF7 cells assessed as cell growth inhibition incubated for 24 hrs by MTT assay; type: functional, cell-based; settings: MCF7, 24 h
HepG2 [18] = assay: Antiproliferative activity against human HepG2 cells assessed as cell growth inhibition incubated for 24 hrs by MTT assay; type: functional, cell-based; settings: HepG2, 24 h
A549 [19] = assay: Antiproliferative activity against human A549 cells assessed as cell growth inhibition measured after 48 hrs by MTT assay; type: functional, cell-based; settings: A549, 48 h
HCT-116 [20] = assay: Cytotoxicity against human HCT-116 cells assessed as cell growth inhibition measured after 72 hrs by MTT assay; type: functional, cell-based; settings: HCT-116, 72 h
A498 = assay: Cytotoxicity against human A498 cells assessed as cell growth inhibition measured after 45 hrs by MTT assay; type: functional, cell-based; settings: A498, 45 h
HepG2 [21] = assay: Cytotoxicity against human HepG2 cells assessed as cell growth inhibition measured after 45 hrs by MTT assay; type: functional, cell-based; settings: HepG2, 45 h
Ca-Ski = assay: Cytotoxicity against human Ca-Ski cells assessed as cell growth inhibition measured after 45 hrs by MTT assay; type: functional, cell-based
A549 [22] = assay: Cytotoxicity against human A549 cells assessed as cell growth inhibition measured after 45 hrs by MTT assay; type: functional, cell-based; settings: A549, 45 h
SiHa = assay: Cytotoxicity against human SiHa cells assessed as cell growth inhibition measured after 45 hrs by MTT assay; type: functional, cell-based
KB = assay: Cytotoxicity against human KB cells assessed as cell growth inhibition; type: functional, cell-based
SK-MEL = assay: Cytotoxicity against human SK-MEL cells assessed as cell growth inhibition; type: functional, cell-based
PC-3 = assay: Cytotoxicity against human PC-3 cells assessed as cell growth inhibition by MTT assay; type: functional, cell-based
MDA-MB-468 = assay: Cytotoxicity against human MDA-MB-468 cells assessed as cell growth reduction measured after 48 hrs by MTT assay; type: functional, cell-based; settings: MDA-MB-468, 48 h
[23] = biological target: T1, Vascular endothelial growth factor receptor 2; assay: Inhibition of VEGFR2 (unknown origin) using poly (Glu,Tyr) 4:1 as substrate measured after 5 mins in presence of ATP by ELISA method

## COC(=O)CNC(=O)Cn1nc(Cc2ccccc2)c2ccccc2c1=O
HepG2 [1]
  IC50: 5.7 µg/mL (≈ 15.6 µM)

## Cc1n[nH]c(=O)cc1Cc1cc2cc(C(C)C)ccc2o1
P815
  IC50: 35 µM
MCF7 [2]
  IC50: 14.5 µM

## O=C(Nc1ccc(Cl)c(C(F)(F)F)c1)Nc1nnc2ccc(N3CCOCC3)nn12
[3]
  Activity: 3%

## O=c1[nH]cc(F)c(=O)[nH]1 [FLUOROURACIL]
ECa-109 cell line
  IC50: 14.4 µM
MDA-MB-231
  IC50: 29.4 µM

## O=C1Nc2ccc(Cl)cc2/C1=N/Nc1nnc(-c2ccccc2)c2ccccc12
MDA-MB-231
  IC50: 12 µM

## Cc1ccc(-c2cc(-c3c(-c4ccccc4)[nH]c4ccccc34)c(Nc3ccc(/N=N/c4c(C)nc(N)nc4C)cc3)nn2)cc1C
HCT-116 [4]
  IC50: 2.1 µg/mL (≈ 3.41 µM)

## N=C(N)NS(=O)(=O)c1ccc(Nc2ccc(Nc3cccc(NC(=O)CCCl)c3)nn2)cc1
[5]
  inhibition: 89.6%
HCT-116 [6]
  IC50: 39 µM
[7]
  inhibition (INH): 10%

## CC1=Nc2c(nnc3ccc(C)cc23)C(=O)NN1
[8]
  IC50: 0.22 µM
MCF7 [9]
  IC50: 0.049 µM

## COc1cc2c(Oc3ccc(NC(=O)c4nn(-c5ccccc5)ccc4=O)cc3F)ccnc2cc1OCCCN1CCN(C)CC1
A549 [10]
  IC50: 0.003 µM
MCF7 [11]
  IC50: 0.006 µM
HepG2 [12]
  IC50: 0.49 µM

## CC(=O)c1ccc(-c2ccc(=O)n(Cc3nc(-c4ncccn4)no3)n2)s1
Homo sapiens
  inhibition: 19%
[13]
  inhibition: 17%

## COc1nc2ccc(C)cc2cc1Cc1cc(-c2ccccc2)n[nH]c1=O
HT-29
  IC50: 4.5 µM
MIA PaCa-2
  IC50: 2.2 µM

## CCOC(=O)/C(C#N)=N/Nc1ccc(Nc2nnc(-c3ccc(C)c(C)c3)cc2-c2c(-c3ccccc3)[nH]c3ccccc23)cc1
HepG2 [14]
  IC50: 3.1 µg/mL (≈ 5.12 µM)

## CCc1ccc2oc(Cc3cc(=O)[nH]nc3C)cc2c1
P815
  IC50: 35 µM
MCF7 [2]
  IC50: 14.5 µM

## CCCOc1ccc2oc(Cc3cc(=O)[nH]nc3C)cc2c1
P815
  IC50: 35 µM
MCF7 [2]
  IC50: 14.5 µM

## COC1CN(C(=O)c2cc(Cc3n[nH]c(=O)c4ccccc34)ccc2F)C1
[15]
  IC50: 0.0082 µM

## CC(=O)C(=NNc1ccc(Nc2nnc(-c3ccc(C)c(C)c3)cc2-c2c(-c3ccccc3)[nH]c3ccccc23)cc1)C(C)=O
MCF7 [16]
  IC50: 2.2 µg/mL (≈ 3.71 µM)

## Cc1cc(-c2ccc(OCC(=O)NNc3nnc(COc4ccc(-c5ccc(Cl)c(C)c5)nn4)o3)nn2)ccc1Cl
MCF7 [17]
  IC50: 9.41 µM
HepG2 [18]
  IC50: 8.67 µM

## CNC(=O)c1cc(Oc2ccc(NC(=O)Nc3ccc(Cl)c(C(F)(F)F)c3)cc2)ccn1 [SORAFENIB]
A549 [19]
  IC50: 1.25 µM

## Cc1n[nH]c(=O)cc1Cc1cc2ccccc2o1
P815
  IC50: 35 µM
MCF7 [2]
  IC50: 14.5 µM

## COc1cccc(NC(=O)Cc2ccc(-c3nn4c(C)nnc4c4ccccc34)cc2)c1
HCT-116 [20]
  IC50: 57.4 µg/mL (≈ 136 µM)

## COc1ccc2oc(Cc3cc(=O)[nH]nc3C)cc2c1
P815
  IC50: 35 µM
MCF7 [2]
  IC50: 14.5 µM

## CC(C)c1ccc(OCC(=O)NNc2ccc(Cl)nn2)c(C(C)C)c1
A498
  IC50: 6.8 µM
HepG2 [21]
  IC50: 6.9 µM
Ca-Ski
  IC50: 7.5 µM
A549 [22]
  IC50: 6.6 µM
SiHa
  IC50: 7.8 µM

## O=c1c(CNc2ccccc2)cc(OS(=O)(=O)C(F)(F)F)nn1Cc1ccccc1
KB
  IC50: 2.8 µM
SK-MEL
  IC50: 3.3 µM

## NNc1nnc(-c2ccc(Oc3ccccc3)cc2)c2ccccc12
PC-3
  IC50: 12.2 µg/mL (≈ 37.2 µM)

## Sc1nnc(Cc2ccccc2)c2ccccc12
PC-3
  IC50: 8.6 µg/mL (≈ 34.1 µM)

## O=C1Nc2ccccc2/C1=N/Nc1nnc(-c2ccccc2)c2ccccc12
MDA-MB-231
  IC50: 12 µM

## Cc1n[nH]c(=O)cc1Cc1cc2cc(Cl)ccc2o1
MDA-MB-468
  IC50: 9.01 µM

## S=C(NNc1nn2cnnc2c2ccccc12)Nc1ccccc1
[23]
  IC50: 0.91 µM

## O=C(Nc1ccc(Cl)c(Cl)c1)Nc1nnc2ccc(Cl)nn12
[3]
  Activity: 3%

From ChEMBL document CHEMBL5104091, “Pyridazine as a privileged structure: An updated review on anticancer activity of pyridazine containing bioactive molecules” (Eur J Med Chem, 2021)
